The subject of the experiment is MDA-MB-231 multicell spheroids, viability (%T/C). As to the kind of experiment: Anticancer human tumor MDA-MB-231 cell line growth inhibition [IpAb].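 On all read-outs here: viability read after seven days of drug exposure.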 Particulars: for viability, T/C: stronger effect = lower value. An excerpt:
Combinatorial screen of targeted agents with ipatasertib and abemaciclib in multi-cell type tumor spheroids
A high-throughput screen of multi-cell type tumor spheroids was designed to identify active combinations of targeted small molecules and ipatasertib or abemaciclib. Complex spheroids include a stromal component modeled by human endothelial cells (HUVEC) and fibroblasts modeled by human mesenchymal stem cells (MSCs). The concentration ranges selected for each drug and investigational agent were based upon clinically achievable concentrations if the clinical Cmax of the agent was known.
Compounds. The drugs and investigational agents: ipatasertib (NSC767898), abemaciclib(NSC768073), selumetinib (NSC741078), trametinib (758246), adavosertib (NSC754352), everolimus (NSC733504), sapanisertib (NSC764658), vemurafenib (NSC761431), venetoclax (NSC766270), copanlisib (NSC809693), apelisib (NSC765974), palbociblib (NSC758247), vemurafenib (NSC761431), dabrafenib (NSC764134), ravoxertinib (NSC781343), BMS-387032 (NSC767048), sotorasib (NSC818433), talazoparib (NSC767125) and afursertib (NSC778305), were obtained from the National Cancer Institute (NCI) Developmental Therapeutics Program Chemical Repository. The FDA-approved anticancer drug set is available from the NCI Developmental Therapeutics Program. […] The stock solutions were prepared in dimethyl sulfoxide (DMSO, Sigma-Aldrich, St. Louis, MO, cat. D2650) at 800-fold the tested concentration and stored at -70 degrees C prior to their use. All drugs and investigational agents were tested over a range starting from a high concentration at or near the clinical Cmax and decreasing in half-log increments. If the clinical Cmax for an agent had not been determined, the highest concentration tested was 10 microM.
NCI60 Cell Culture. NCI60 cell lines were obtained from the NCI Developmental Therapeutics Program Tumor Repository. For each lot of cells, the Repository performed Applied Biosystems AmpFLSTR Identifiler testing with PCR amplification to confirm consistency with the published Identifier STR profile for each cell line. Cells were kept in continuous culture for no more than 20 passages. The optimal seeding densities for each of the cell lines at each time point assessed were determined prior to performing the concentration response studies. Briefly, the NCI60 human tumor lines were grown as monolayers in RPMI 1640 medium supplemented with 10% FBS and 2 mmol/L L-glutamine.
An additional 9 lines were from the NCI60 cell line panel including MDA-MB-231 breast carcinoma, MDA-MB-468 breast carcinoma, MCF7 breast carcinoma, Hs578T breast carcinoma, MALME-3M melanoma, SK-MEL-2 melanoma, SK-OV-3 ovarian carcinoma, DU-145 prostate carcinoma, PC-3 prostate carcinoma, all cell lines along with major genetic alterations are listed on Table 2. Pooled donor human umbilical vein endothelial cells (HUVEC, Lonza, cat. CC-2519) and human mesenchymal stem cells (hMSC, Lonza, cat. PT-2501) were purchased from Lonza (Walkersville, MD).
PDMR cell lines were grown in complete medium (DC medium): Dulbecco's modified Eagle's medium (DMEM)/F12 supplemented with 5% fetal bovine serum (FBS), 2 mM L-glutamine, 100 U/mL penicillin and 100 µg/ml streptomycin, 0.4 µg/ml hydrocortisone, 10 ng/ml epidermal growth factor (EGF) recombinant human protein, 24 µg/mL adenine, and 0.1 mg/mL primocin. During culture from frozen stock vials, PDMR cells were cultured in the same medium containing 10 µM Y-27632 (see Table 3). The PDCs were cultured in complete DMEM/F12 media without 10 microM Y-27632 dihydrochloride for at least two passages prior to the screen. The pooled donor HUVEC and hMSC were cultured in endothelial cell growth medium 2 (PromoCell, Heidelberg, Germany, cat. C-22011) and mesenchymal stem cell growth medium 2 (PromoCell, cat. C-28009), respectively. For all experiments, HUVEC and hMSC were used at passages </=5.
[…]

Setting [1] is: curve of first compound, second compound 0.1 µM.
Setting [2] is: curve of first compound, second compound 0.316 µM.
The mark [3] stands for this setting: curve of first compound, second compound 1 µM.
[4] abbreviates: curve of first compound, second compound 3.16 µM.
[5] abbreviates: curve of first compound, second compound 10 µM.
[6] abbreviates: second compound 0.1 µM, first compound 0.0316 µM.
Where [7] appears, read: second compound 0.1 µM, first compound 0.1 µM.
The mark [8] stands for this setting: second compound 0.1 µM, first compound 0.316 µM.
Setting [9] is: second compound 0.1 µM, first compound 1 µM.
Setting [10] is: second compound 0.1 µM, first compound 3.16 µM.
[11] abbreviates: second compound 0.1 µM, first compound 10 µM.
Where [12] appears, read: second compound 0.316 µM, first compound 0.0316 µM.
[13] abbreviates: second compound 0.316 µM, first compound 0.1 µM.
Where [14] appears, read: second compound 0.316 µM, first compound 0.316 µM.
[15] abbreviates: second compound 0.316 µM, first compound 1 µM.
Where [16] appears, read: second compound 0.316 µM, first compound 3.16 µM.
Where [17] appears, read: second compound 0.316 µM, first compound 10 µM.
[18] abbreviates: second compound 1 µM, first compound 0.0316 µM.
Where [19] appears, read: second compound 1 µM, first compound 0.1 µM.
Setting [20] is: second compound 1 µM, first compound 0.316 µM.
The mark [21] stands for this setting: second compound 1 µM, first compound 1 µM.
[22] abbreviates: second compound 1 µM, first compound 3.16 µM.
Where [23] appears, read: second compound 1 µM, first compound 10 µM.
Setting [24] is: second compound 3.16 µM, first compound 0.0316 µM.
Where [25] appears, read: second compound 3.16 µM, first compound 0.1 µM.
The mark [26] stands for this setting: second compound 3.16 µM, first compound 0.316 µM.
Where [27] appears, read: second compound 3.16 µM, first compound 1 µM.
[28] abbreviates: second compound 3.16 µM, first compound 3.16 µM.
Where [29] appears, read: second compound 3.16 µM, first compound 10 µM.
The mark [30] stands for this setting: second compound 10 µM, first compound 0.0316 µM.
The mark [31] stands for this setting: second compound 10 µM, first compound 0.1 µM.
[32] abbreviates: second compound 10 µM, first compound 0.316 µM.
Setting [33] is: second compound 10 µM, first compound 1 µM.
Setting [34] is: second compound 10 µM, first compound 3.16 µM.
Setting [35] is: second compound 10 µM, first compound 10 µM.

Our source for the IC50 and viability, T/C values is PubChem BioAssay AID2060328 (Molecular Pharmacology Branch, DTP, NCI, 2025).

“And” between values parts separate entries of the source, which are not always exact repeats. Equal entries are not always repeated. Some results are limits rather than exact numbers.

The IC50 is the concentration that inhibits the measured activity by half. In general, viability, T/C refers to the ratio of treated to control.

On to `Cc1nc(NC(=O)N2CCCC2C(N)=O)sc1-c1ccnc(C(C)(C)C(F)(F)F)c1` (centres undefined) + CC(C)NCC(C(=O)N1CCN(c2ncnc3c2C(C)CC3O)CC1)c1ccc(Cl)cc1, for which the IC50 reads like this: under setting [1], above 10000 nM; under setting [2], above 10000 nM; under setting [3], above 10000 nM; under setting [4], below 31.6 nM; under setting [5], below 31.6 nM. Also, the viability, T/C is 84.1% under setting [6]; 71.3% under setting [7]; 64.7% under setting [8]; 71.8% under setting [9]; 71.4% under setting [10]; 62.5% under setting [11]. Also, the viability, T/C is 74.8% under setting [12]; 63.7% under setting [13]; 58.3% under setting [14]; 59.9% under setting [15]; 64.8% under setting [16]; 60.8% under setting [17]. Moreover, the viability, T/C reads like this: under setting [18], 63.1%; under setting [19], 58.7%; under setting [20], 55.3%; under setting [21], 55.3%; under setting [22], 58%; under setting [23], 55.8%. The viability, T/C runs as follows: under setting [24], 50.7%; under setting [25], 45.8%; under setting [26], 41.4%; under setting [27], 46%; under setting [28], 46.1%; under setting [29], 42.6%. In addition, the viability, T/C under setting [30] was 35.2%; the viability, T/C under setting [31] is 33.1%; the viability, T/C under setting [32] was 31.6%; the viability, T/C under setting [33] was 33.1%; the viability, T/C under setting [34] is 37.8%; the viability, T/C under setting [35] was 32.8%.
Turning to `C=CCn1c(=O)c2cnc(Nc3ccc(N4CCN(C)CC4)cc3)nc2n1-c1cccc(C(C)(C)O)n1`, the viability, T/C is 99.7% and 119% (compound 0.0316 µM); 84.6% and 96.2% (compound 0.1 µM); 34.6% and 37.5% (compound 0.316 µM); 18.5% and 17.7% (compound 1 µM); 16.1% and 15.1% (compound 3.16 µM); 21.8% and 20.7% (compound 10 µM). Besides, the 50% inhibitory concentration (IC50) (curve of compound) is 221 nM and 246 nM.
On to `Cn1ncc(Cl)c1-c1cc(C(=O)NC(CN)Cc2cccc(F)c2)sc1Cl` (centres undefined) + CC(C)NCC(C(=O)N1CCN(c2ncnc3c2C(C)CC3O)CC1)c1ccc(Cl)cc1, for which the IC50 under setting [1] worked out at 1590 nM; the IC50 under setting [2] is 1270 nM; the IC50 under setting [3] came out at 1100 nM; the IC50 under setting [4] was determined as 471 nM; the IC50 under setting [5] was below 31.6 nM. Also, the viability, T/C is, setting by setting: under setting [6], 99.1%; under setting [7], 88%; under setting [8], 80.3%; under setting [9], 61.8%; under setting [10], 33%; under setting [11], 0.11%. The viability, T/C is, setting by setting: under setting [12], 70.7%; under setting [13], 79.4%; under setting [14], 71.2%; under setting [15], 49%; under setting [16], 34.3%; under setting [17], 0.12%. The viability, T/C under setting [18] was 74.1%; the viability, T/C under setting [19] was 71.9%; the viability, T/C under setting [20] was 63.1%; the viability, T/C under setting [21] was 50.6%; the viability, T/C under setting [22] was 32.8%; the viability, T/C under setting [23] is 0.11%. Also, the viability, T/C reads like this: under setting [24], 57.3%; under setting [25], 59.1%; under setting [26], 49.7%; under setting [27], 43%; under setting [28], 33.6%; under setting [29], 0.34%. For the same compound, the viability, T/C is 42.2% under setting [30]; 41.1% under setting [31]; 37.5% under setting [32]; 37.5% under setting [33]; 26.1% under setting [34]; 0.49% under setting [35].
Turning to `Cc1nc(NC(=O)N2CCCC2C(N)=O)sc1-c1ccnc(C(C)(C)C(F)(F)F)c1` (centres undefined), the viability, T/C (compound 0.0316 µM) was 92.2% and 88.6%; the viability, T/C (compound 0.1 µM) is 74.9% and 72.1%; the viability, T/C (compound 0.316 µM) is 68.2% and 66%; the viability, T/C (compound 1 µM) is 65.7% and 73.6%; the viability, T/C (compound 3.16 µM) was 66.8% and 71.2%; the viability, T/C (compound 10 µM) was 62.7% and 60.5%. Besides, the IC50 (curve of compound) was above 10000 nM.
